In US4012284A (Societa' Farmaceutici Italia, S.p.A., priority 1962, dated 1977) one finds solubility and solubility in water data, which are given here for 3 compounds.

Structures are written as SMILES. Structures can show the parent of a compound that is named as a salt.

The nature of this data set: Solubility. The data set is classed as physicochemical.

As to `COc1cccc2c1C(=O)c1c(O)c3c(c(O)c1C2=O)C[C@@](O)(C(C)=O)C[C@@H]3O` [Daunomycinone, daunomycinone], the solubility in water result is “insoluble”. Besides, the solubility result (in benzene, aliphatic esters, ethyl ether) is recorded as “scarcely soluble”. The solubility result (in butanol, acetone) is listed as “less soluble”. For the same compound, the solubility entry (in methanol, ethanol, chloroform) is given as “soluble”. Besides, for the setting “in petroleum ether”, the solubility result is given as “insoluble”.

`COc1cccc2c1C(=O)c1c(O)c3c(c(O)c1C2=O)C[C@@](O)(C(C)=O)C[C@@H]3O[C@H]1C[C@H](N)[C@H](O)[C@H](C)O1` [F.I. 1762 hydrochloride]: the solubility in water entry is listed as “soluble”. Further, for the setting “in chloroform, acetone, benzol and non-polar solvents”, the solubility entry is recorded as “insoluble”. In addition, the solubility entry (in methanol, aqueous alcohols) was “soluble”.

`COc1cccc2c1C(=O)c1c(O)c3c(c(O)c1C2=O)C[C@@](O)(C(C)=O)C[C@@H]3O[C@H]1C[C@H](N)[C@H](O)[C@H](C)O1` [F.I. 1762 picrate]: the solubility result (in lower aliphatic alcohols, halogenated hydrocarbon (chloroform), ketones (acetone, methylethylketone)) is given as “soluble”.
